Experimental data as given in ChEMBL document CHEMBL1138551, “Antimicrobial studies of some novel quinazolinones fused with [1,2,4]-triazole, [1,2,4]-triazine and [1,2,4,5]-tetrazine rings” (2009).
Converted amounts (≈) assume the structure as drawn.

Legend:
Format in all cases: functional
[1] = system: Escherichia coli; assay: Antibacterial activity against Escherichia coli after 24 hrs by disk diffusion method
[2] = system: Pseudomonas aeruginosa; assay: Antibacterial activity against Pseudomonas aeruginosa after 24 hrs by disk diffusion method
[3] = system: Streptococcus pneumoniae; assay: Antibacterial activity against Streptococcus pneumoniae after 24 hrs by disk diffusion method
[4] = system: Bacillus subtilis; assay: Antibacterial activity against Bacillus subtilis after 24 hrs by disk diffusion method
[5] = system: Candida albicans; assay: Antifungal activity against Candida albicans after 26 hrs by serial plate dilution method
[6] = system: Aspergillus fumigatus; assay: Antifungal activity against Aspergillus fumigatus after 26 hrs by serial plate dilution method
[7] = system: Aspergillus flavus; assay: Antifungal activity against Aspergillus flavus after 26 hrs by serial plate dilution method
[8] = system: Aspergillus niger; assay: Antifungal activity against Aspergillus niger after 26 hrs by serial plate dilution method

SMILES: Cc1ccc(-n2c(=O)c3ccccc3n3c(-c4ccccc4Cl)nnc23)cc1
- MIC [1]: 12.5 µg/mL (≈ 32.3 µM)
- MIC [2]: 6.25 µg/mL (≈ 16.2 µM)
- MIC [3]: 12.5 µg/mL (≈ 32.3 µM)
- MIC [4]: 25 µg/mL (≈ 64.6 µM)
- MIC [5]: 12.5 µg/mL (≈ 32.3 µM)
- MIC [6]: 25 µg/mL (≈ 64.6 µM)
- MIC [7]: 50 µg/mL (≈ 129 µM)
- MIC [8]: 6.25 µg/mL (≈ 16.2 µM)

SMILES: COc1ccc(-n2c(=O)c3ccccc3n3c(-c4ccccc4C)nnc23)cc1
- MIC [1]: 6.25 µg/mL (≈ 16.3 µM)
- MIC [2]: 3.12 µg/mL (≈ 8.16 µM)
- MIC [3]: 25 µg/mL (≈ 65.4 µM)
- MIC [4]: 12.5 µg/mL (≈ 32.7 µM)
- MIC [5]: 12.5 µg/mL (≈ 32.7 µM)
- MIC [6]: 6.25 µg/mL (≈ 16.3 µM)
- MIC [7]: 25 µg/mL (≈ 65.4 µM)
- MIC [8]: 6.25 µg/mL (≈ 16.3 µM)

SMILES: COc1ccc(-n2c(=O)c3ccccc3n3c4nc5ccccc5c-4nnc23)cc1
- MIC [1]: 12.5 µg/mL (≈ 31.8 µM)
- MIC [2]: 12.5 µg/mL (≈ 31.8 µM)
- MIC [3]: 12.5 µg/mL (≈ 31.8 µM)
- MIC [4]: 6.25 µg/mL (≈ 15.9 µM)
- MIC [5]: 6.25 µg/mL (≈ 15.9 µM)
- MIC [6]: 6.25 µg/mL (≈ 15.9 µM)
- MIC [7]: 3.12 µg/mL (≈ 7.93 µM)
- MIC [8]: 12.5 µg/mL (≈ 31.8 µM)

SMILES: Cc1ccc(-n2c(=O)c3ccccc3n3c(-c4ccccc4)nnc23)cc1
- MIC [1]: 25 µg/mL (≈ 70.9 µM)
- MIC [2]: 25 µg/mL (≈ 70.9 µM)
- MIC [3]: 50 µg/mL (≈ 142 µM)
- MIC [4]: 50 µg/mL (≈ 142 µM)
- MIC [5]: > 50 µg/mL
- MIC [6]: 25 µg/mL (≈ 70.9 µM)
- MIC [7]: 50 µg/mL (≈ 142 µM)
- MIC [8]: 50 µg/mL (≈ 142 µM)

SMILES: Cc1ccc(N2C(=S)NN=C3N(c4ccccc4)C(=O)c4ccccc4N32)cc1
- MIC [1]: 50 µg/mL (≈ 125 µM)
- MIC [2]: 50 µg/mL (≈ 125 µM)
- MIC [3]: 25 µg/mL (≈ 62.6 µM)
- MIC [4]: 50 µg/mL (≈ 125 µM)
- MIC [5]: > 50 µg/mL
- MIC [6]: 25 µg/mL (≈ 62.6 µM)
- MIC [7]: 12.5 µg/mL (≈ 31.3 µM)
- MIC [8]: 25 µg/mL (≈ 62.6 µM)

SMILES: Cc1ccc(-n2c(=O)c3ccccc3n3c(-c4ccccc4C)nnc23)cc1
- MIC [1]: 25 µg/mL (≈ 68.2 µM)
- MIC [2]: > 50 µg/mL
- MIC [3]: 25 µg/mL (≈ 68.2 µM)
- MIC [4]: > 50 µg/mL
- MIC [5]: 25 µg/mL (≈ 68.2 µM)
- MIC [6]: 12.5 µg/mL (≈ 34.1 µM)
- MIC [7]: 50 µg/mL (≈ 136 µM)
- MIC [8]: 12.5 µg/mL (≈ 34.1 µM)

SMILES: Cc1ccc(-n2c(=O)c3ccccc3n3c4nc5ccccc5c-4nnc23)cc1
- MIC [1]: 25 µg/mL (≈ 66.2 µM)
- MIC [2]: > 50 µg/mL
- MIC [3]: 25 µg/mL (≈ 66.2 µM)
- MIC [4]: 25 µg/mL (≈ 66.2 µM)
- MIC [5]: 25 µg/mL (≈ 66.2 µM)
- MIC [6]: 12.5 µg/mL (≈ 33.1 µM)
- MIC [7]: 25 µg/mL (≈ 66.2 µM)
- MIC [8]: 50 µg/mL (≈ 132 µM)

SMILES: O=c1c2ccccc2n2c3nc4ccccc4c-3nnc2n1-c1ccccc1
- MIC [1]: 50 µg/mL (≈ 138 µM)
- MIC [2]: 25 µg/mL (≈ 68.8 µM)
- MIC [3]: > 50 µg/mL
- MIC [4]: 50 µg/mL (≈ 138 µM)
- MIC [5]: > 50 µg/mL
- MIC [6]: 25 µg/mL (≈ 68.8 µM)
- MIC [7]: 25 µg/mL (≈ 68.8 µM)
- MIC [8]: > 50 µg/mL

SMILES: COc1ccc(-n2c(=O)c3ccccc3n3c(-c4ccccc4Cl)nnc23)cc1
- MIC [1]: 3.12 µg/mL (≈ 7.74 µM)
- MIC [2]: 1.56 µg/mL (≈ 3.87 µM)
- MIC [3]: 6.25 µg/mL (≈ 15.5 µM)
- MIC [4]: 3.12 µg/mL (≈ 7.74 µM)
- MIC [5]: 6.25 µg/mL (≈ 15.5 µM)
- MIC [6]: 3.12 µg/mL (≈ 7.74 µM)
- MIC [7]: 3.12 µg/mL (≈ 7.74 µM)
- MIC [8]: 1.56 µg/mL (≈ 3.87 µM)

SMILES: Cc1ccccc1-c1nnc2n(-c3ccccc3)c(=O)c3ccccc3n12
- MIC [1]: 25 µg/mL (≈ 70.9 µM)
- MIC [2]: 50 µg/mL (≈ 142 µM)
- MIC [3]: > 50 µg/mL
- MIC [4]: > 50 µg/mL
- MIC [5]: 50 µg/mL (≈ 142 µM)
- MIC [6]: 25 µg/mL (≈ 70.9 µM)
- MIC [7]: 25 µg/mL (≈ 70.9 µM)
- MIC [8]: > 50 µg/mL

SMILES: OC(Cn1cncn1)(Cn1cncn1)c1ccc(F)cc1F [FLUCONAZOLE]
- MIC [5]: 1.56 µg/mL (≈ 5.09 µM)
- MIC [6]: 6.25 µg/mL (≈ 20.4 µM)
- MIC [7]: 3.12 µg/mL (≈ 10.2 µM)
- MIC [8]: 1.56 µg/mL (≈ 5.09 µM)

SMILES: O=c1c2ccccc2n2c(-c3ccccc3Cl)nnc2n1-c1ccccc1
- MIC [1]: 12.5 µg/mL (≈ 33.5 µM)
- MIC [2]: 6.25 µg/mL (≈ 16.8 µM)
- MIC [3]: 25 µg/mL (≈ 67.1 µM)
- MIC [4]: 50 µg/mL (≈ 134 µM)
- MIC [5]: 25 µg/mL (≈ 67.1 µM)
- MIC [6]: 50 µg/mL (≈ 134 µM)
- MIC [7]: 12.5 µg/mL (≈ 33.5 µM)
- MIC [8]: 6.25 µg/mL (≈ 16.8 µM)

SMILES: Cc1ccc(N2C(=O)c3ccccc3N3C2=NNC(=S)N3c2ccccc2)cc1
- MIC [1]: 25 µg/mL (≈ 62.6 µM)
- MIC [2]: 25 µg/mL (≈ 62.6 µM)
- MIC [3]: > 50 µg/mL
- MIC [4]: 25 µg/mL (≈ 62.6 µM)
- MIC [5]: 25 µg/mL (≈ 62.6 µM)
- MIC [6]: 12.5 µg/mL (≈ 31.3 µM)
- MIC [7]: 12.5 µg/mL (≈ 31.3 µM)
- MIC [8]: 25 µg/mL (≈ 62.6 µM)

SMILES: O=c1c2ccccc2n2c3nc4ccccc4c-3nnc2n1-c1ccc(Cl)cc1
- MIC [1]: 3.12 µg/mL (≈ 7.84 µM)
- MIC [2]: 3.12 µg/mL (≈ 7.84 µM)
- MIC [3]: 1.56 µg/mL (≈ 3.92 µM)
- MIC [4]: 6.25 µg/mL (≈ 15.7 µM)
- MIC [5]: 3.12 µg/mL (≈ 7.84 µM)
- MIC [6]: 6.25 µg/mL (≈ 15.7 µM)
- MIC [7]: 3.12 µg/mL (≈ 7.84 µM)
- MIC [8]: 1.56 µg/mL (≈ 3.92 µM)

SMILES: O=C(O)c1cn(C2CC2)c2cc(N3CCNCC3)c(F)cc2c1=O [CIPROFLOXACIN]
- MIC [2]: 3.12 µg/mL (≈ 9.42 µM)
- MIC [3]: 6.25 µg/mL (≈ 18.9 µM)
- MIC [4]: 1.56 µg/mL (≈ 4.71 µM)

SMILES: O=c1c2ccccc2n2c(-c3ccccc3)nnc2n1-c1ccc(Cl)cc1
- MIC [1]: 6.25 µg/mL (≈ 16.8 µM)
- MIC [2]: 12.5 µg/mL (≈ 33.5 µM)
- MIC [3]: 12.5 µg/mL (≈ 33.5 µM)
- MIC [4]: 6.25 µg/mL (≈ 16.8 µM)
- MIC [5]: 12.5 µg/mL (≈ 33.5 µM)
- MIC [6]: 6.25 µg/mL (≈ 16.8 µM)
- MIC [7]: 12.5 µg/mL (≈ 33.5 µM)
- MIC [8]: 25 µg/mL (≈ 67.1 µM)

SMILES: Cc1ccc(N2C(=O)c3ccccc3N3C2=NNC(=S)N3c2ccc(C)cc2)cc1
- MIC [1]: 25 µg/mL (≈ 60.5 µM)
- MIC [2]: 50 µg/mL (≈ 121 µM)
- MIC [3]: 50 µg/mL (≈ 121 µM)
- MIC [4]: 25 µg/mL (≈ 60.5 µM)
- MIC [5]: 25 µg/mL (≈ 60.5 µM)
- MIC [6]: 50 µg/mL (≈ 121 µM)
- MIC [7]: 12.5 µg/mL (≈ 30.2 µM)
- MIC [8]: 25 µg/mL (≈ 60.5 µM)

SMILES: COc1ccc(-n2c(=O)c3ccccc3n3c(-c4ccccc4)nnc23)cc1
- MIC [1]: 12.5 µg/mL (≈ 33.9 µM)
- MIC [2]: 6.25 µg/mL (≈ 17 µM)
- MIC [3]: 6.25 µg/mL (≈ 17 µM)
- MIC [4]: 12.5 µg/mL (≈ 33.9 µM)
- MIC [5]: 6.25 µg/mL (≈ 17 µM)
- MIC [6]: 12.5 µg/mL (≈ 33.9 µM)
- MIC [7]: 25 µg/mL (≈ 67.9 µM)
- MIC [8]: 3.12 µg/mL (≈ 8.47 µM)

SMILES: O=c1c2ccccc2n2c(-c3ccccc3)nnc2n1-c1ccccc1
- MIC [1]: 50 µg/mL (≈ 148 µM)
- MIC [2]: > 50 µg/mL
- MIC [3]: 50 µg/mL (≈ 148 µM)
- MIC [4]: 25 µg/mL (≈ 73.9 µM)
- MIC [5]: 25 µg/mL (≈ 73.9 µM)
- MIC [6]: > 50 µg/mL
- MIC [7]: > 50 µg/mL
- MIC [8]: 25 µg/mL (≈ 73.9 µM)

SMILES: O=C1c2ccccc2N2C(=NNC(=S)N2c2ccccc2)N1c1ccccc1
- MIC [1]: > 50 µg/mL
- MIC [2]: 50 µg/mL (≈ 130 µM)
- MIC [3]: 25 µg/mL (≈ 64.9 µM)
- MIC [4]: > 50 µg/mL
- MIC [5]: 25 µg/mL (≈ 64.9 µM)
- MIC [6]: > 50 µg/mL
- MIC [7]: > 50 µg/mL
- MIC [8]: 25 µg/mL (≈ 64.9 µM)

SMILES: COc1ccc(N2C(=S)NN=C3N(c4ccccc4)C(=O)c4ccccc4N32)cc1
- MIC [1]: 6.25 µg/mL (≈ 15 µM)
- MIC [2]: 3.12 µg/mL (≈ 7.51 µM)
- MIC [3]: 25 µg/mL (≈ 60.2 µM)
- MIC [4]: 3.12 µg/mL (≈ 7.51 µM)
- MIC [5]: 6.25 µg/mL (≈ 15 µM)
- MIC [6]: 12.5 µg/mL (≈ 30.1 µM)
- MIC [7]: 25 µg/mL (≈ 60.2 µM)
- MIC [8]: 3.12 µg/mL (≈ 7.51 µM)

SMILES: Cc1ccccc1-c1nnc2n(-c3ccc(Cl)cc3)c(=O)c3ccccc3n12
- MIC [1]: 12.5 µg/mL (≈ 32.3 µM)
- MIC [2]: 25 µg/mL (≈ 64.6 µM)
- MIC [3]: 25 µg/mL (≈ 64.6 µM)
- MIC [4]: 12.5 µg/mL (≈ 32.3 µM)
- MIC [5]: 6.25 µg/mL (≈ 16.2 µM)
- MIC [6]: 12.5 µg/mL (≈ 32.3 µM)
- MIC [7]: 3.12 µg/mL (≈ 8.07 µM)
- MIC [8]: 12.5 µg/mL (≈ 32.3 µM)

SMILES: O=c1c2ccccc2n2c(-c3ccccc3Cl)nnc2n1-c1ccc(Cl)cc1
- MIC [1]: 1.56 µg/mL (≈ 3.83 µM)
- MIC [2]: 3.12 µg/mL (≈ 7.66 µM)
- MIC [3]: 3.12 µg/mL (≈ 7.66 µM)
- MIC [4]: 1.56 µg/mL (≈ 3.83 µM)
- MIC [5]: 1.56 µg/mL (≈ 3.83 µM)
- MIC [6]: 3.12 µg/mL (≈ 7.66 µM)
- MIC [7]: 6.25 µg/mL (≈ 15.3 µM)
- MIC [8]: 1.56 µg/mL (≈ 3.83 µM)
